Assay results from patent US20030194738A1, “Antisense oligonucleotide compositions and methods for the modulation of activating protein 1” (priority 1997, published 2003).

Legend:
Format in all cases: cell-based
c-jun mRNA = c-jun mRNA levels in PDGF-stimulated rat aortic smooth muscle cells; details: 200 nM for 4 hours; 2 and 6 hours after exposure to PDGF (10 ng/ml); versus untreated or ISIS 12898-treated cells
Method: (§1) In order to evaluate the effect of AP-1 modulation on cell cycle progression, the following study was performed. Cultured rat aortic smooth muscle (RASM) cells are stimulated to proliferate upon contact with platelet-derived growth factor (PDGF). Primary RASM cells (passages 6-8) were synchronized by incubation for 48 hours in DMEM containing 0.1% FBS. The cells were treated for 4 hours with 200 nM ISIS 12633 (SEQ ID NO:78), a 20-mer phosphorothioate oligonucleotide complementary to a portion of the 3′ UTR of rat c-jun mRNA, or ISIS 12898 (SEQ ID NO:92), a scrambled control of ISIS 12633. Cells were then contacted with PDGF (10 ng/ml) (R&D Systems, Minneapolis, Minn.), and cell cycle progression was assessed by FACS analysis 24 hours later. At 2 and 6 hours after exposure to PDGF, c-jun mRNA levels were markedly less in ISIS 12633-treated cells as compared to untreated cells or cells treated with ISIS 12898.

[1] = system: rat aortic smooth muscle (RASM) cells; assay: Cell cycle progression of PDGF-stimulated rat aortic smooth muscle cells, FACS analysis; details: 200 nM; 24 hours after PDGF
Method: as §1

rat c-jun mRNA = assay: Rat c-jun mRNA expression in rat A10 cells
Method: Tables 13 and 14 show the sequences of oligonucleotides designed to modulate rat c-jun and c-fos mRNA expression, respectively. For the nucleotide sequence of the rat c-jun gene, see Genbank accession No. X17163/RSJUNAP1 and Saaki et al., Cancer Res., 1989, 49:5633. The nucleotide sequence of the rat c-fos gene is described in Genbank accession No. X06769/RNCFOSR and Curran et al., Oncogene, 1987, 2:79. Oligonucleotide activities were evaluated as described infra in Example 2 et seq. with the exception that rat A10 cells (available from, inter alia, the American Type Culture Collection, Rockville, Md., as ATCC No. CRL-1476) were used instead of human A549 cells. Due to the high degree of homology between human and rat c-jun and c-fos nucleotide sequences, probes derived from the human genes were used to detect the rat messages.
Another preferred oligonucleotide targeted to rat AP-1 subunits is ISIS 12635 (SEQ ID NO:80).

TTT-TCT-TCC-ACT-GCC-CCT-CA (TTTTCTTCCACTGCCCCTCA; DNA, all phosphorothioate, methylation of C not given here) [ISIS 12633]
c-jun mRNA levels (in words) (c-jun mRNA): markedly less
proportion of cells in the G2/M interface (in words) [1]: significant decrease
modulation of rat c-jun (in words) (rat c-jun mRNA): active modulator
